From paper PMC7890096, “Binding of non-canonical peptidoglycan controls Vibrio cholerae broad spectrum racemase activity” (Computational and Structural Biotechnology Journal, 2021)

Test system: BsrV
Assay: in vitro BsrV racemase assay (L-Ala substrate) with muropeptides, Marfey's/HPLC
Type: biochemical, Vibrio cholerae
Details: 4 mM L-Ala, 5 min at 37 °C, Bicarbonate buffer 50 mM pH 9, Fig. 3A; for inhibition of BsrV D-Ala production, in words: D-cycloserine 0.1 mM, tripeptide and D-Ala-D-Ala at equal concentration (amino acid, tripeptide/dipeptide), p dipeptide vs tripeptide = 0.0181, tripeptide vs M4 = 0.0027, M3R vs D-cycloserine < 0.0001
Method: For activity assays, in vitro LAA and DAAS were characterized with Marfey’s (FDAA)-derivatization in HPLC and DAAO assay (D-amino acid oxidase) performed as described. The product from a racemization reaction was derivatized with L-FDAA (1-fluoro-2-4-dinitrophenyl-5-L-alanine amide, Marfey’s reagent, Thermo Scientific). First, an equal volume of NaHCO3 0.5 M was added to the racemization reaction; then, 6 µL of this reaction was reacted with FDAA (10 mg/mL in acetone) at 80 °C for 3 min. The reaction was stopped with HCl 2 N and the samples were filtered. The products were separated with a linear gradient of triethylamine phosphate/acetonitrile in HPLC with an Aeris peptide column (250 × 4.6 mm; 3.6 μm particle size) (Phenomenex, USA) and detected at Abs.340 nm. To determine the inhibition effect of the sacculus in BsrV's activity, 35 µg of sacculi were incubated for 5 min at 37 °C with BsrV and 4 mM of L-Ala in Tris-HCl 50 mM pH 8. […] DAAO reaction was determined by coupling 10 µL of the extract into 150 µL of a reaction containing: sodium phosphate buffer 100 mM pH 7, Trigonopsis variabilis D-amino acid oxidase (DAAO) (Komarova et al., 2012) 3.6 U/ml, horseradish peroxidase 1 U/mL, o-phenylenediamine (OPD) 2 mg/mL and FAD 3 mg/ml. This two-step assay permits the quantification of H2O2 (DAAO is able to produce α-ketoacid, NH3 and H2O2 from DAA). Peroxidase reduces H2O2, […], leading to the production of 2,3–25 diaminophenazine. The reaction was incubated for 2 h at 37 °C and inactivated with HCl 3 M, giving a colorimetric product that can be measured at 492 nm. To determine the inhibition effect of muropeptides in BsrV's activity, 0.1 mM of M4 (GlcNAc-MurNAc-Ala-Glu-DAP (Diaminopimelate)-Ala), M3M (GlcNAc-MurNAc-Ala-Glu-DAP-Met), M3R (GlcNAc-MurNAc-Ala-Glu-DAP-Arg) and D-cycloserine were incubated with BsrV and 4 mM of L-Ala for 5 min at 37 °C (1/40 relation) in Bicarbonate buffer 50 mM pH 9. In the case of tripeptide and D-Ala-D-Ala, equal concentration (amino acid, tripeptide/dipeptide) was utilized.
Fig. 3 Peptidoglycan inhibits BsrV’s activity. (A) Inhibitory effect of muropeptides on BsrV activity. In vitro BsrV racemase assays with L-Ala as substrate in the presence of (see schematics): M4 (disaccharide tetrapeptide), M3M and M3R; the asterisk represents D-Met and D-Arg substitutions in the fourth position. […] P values: [dipeptide vs tripeptide] = 0.0181; [tripeptidevsM4] = 0.0027; [M4vsM3M] = 0.0003; [M4vsM3R] < 0.0003; [M3MvsM3R] = 0.2552; [M3RvsD-cycloserine] < 0.0001. (B) Inhibitory effect of peptidoglycan sacculi on BsrV activity. In vitro BsrV racemase assays with L-Ala as substrate in the presence of undigested sacculi (see schematics). Sugar rings are represented by hexagons and peptides are depicted. […]

Compound | inhibition of BsrV D-Ala production, in words | reduction in D-Ala production (% of inhibition) (0.1 mM muropeptide, Marfey's derivatization, HPLC 340 nm, vs control reaction with no inhibitor, single time point, p M4 vs M3M = 0.0003, M4 vs M3R < 0.0003, M3M vs M3R = 0.2552)
N[C@@H]1CON=C1O [D-cycloserine] | inhibit the least | 
CC(=O)N[C@H]1[C@H](O[C@H]2[C@H](O[C@H](C)C(=O)N[C@@H](C)C(=O)N[C@H](CCC(=O)N[C@@H](CCC[C@@H](N)C(=O)O)C(=O)N[C@H](C)C(=O)O)C(=O)O)[C@@H](NC(C)=O)C(O)O[C@@H]2CO)O[C@H](CO)[C@@H](O)[C@@H]1O (stereo partly drawn) [M4, GlcNAc-MurNAc-Ala-Glu-DAP-Ala] |  | ~ 20%
D-Ala-D-Ala [dipeptide] | inhibit the least | 
L-Ala-D-Glu-D-Lys [tripeptide] | inhibit the least | 
